Measured values from ChEMBL document CHEMBL3045068, “Effect of methomyl and oxamyl soil applications on early control of nematodes and insects” (Pest Manag Sci, 2011).
Values after ≈ are worked out from the molar mass of the structure shown.

Tests used:
[1] = test system: Meloidogyne incognita; test: Nematicidal activity against second juvenile stage of Meloidogyne incognita (root-knot nematode) infected lima bean plant assessed as root dry weight at 3 kg ai/ha applied to soil measured up to 7 days post planting under green house conditions (reference value: 0.5 +/- 0.052 g); format: functional
[2] = test system: Phaseolus lunatus; test: Phytotoxicity in Phaseolus lunatus (lima bean) root assessed as root dry weight at 1.56 kg ai/ha applied to soil measured up to 7 days under green house conditions (reference value: 0.36 +/- 0.071 g); format: organism-based; conditions: in vivo, other, 168 h
[3] = test system: Pisum sativum; test: Phytotoxicity in Pisum sativum (pea) assessed as root dry weight at 4 kg ai/ha applied to soil measured up to 7 days post planting at 19 degC (reference value: 2 +/- 0.21 g); format: organism-based; conditions: lathyrus oleraceus, in vivo, other, 168 h
[4] = test system: Meloidogyne incognita; test: Nematicidal activity against second juvenile stage of Meloidogyne incognita (root-knot nematode) assessed as mortality at 20 mg ai/L after 48 to 72 hr relative to control; format: functional
[5] = test system: Meloidogyne incognita; test: Nematicidal activity against second juvenile stage of Meloidogyne incognita (root-knot nematode) infected pea plant assessed as root fresh weight at 4 kg ai/ha applied to soil measured up to 7 days post planting under green house conditions (reference value: 1.83 +/- 0.3 g); format: functional
[6] = test system: Meloidogyne incognita; test: Nematicidal activity against second juvenile stage of Meloidogyne incognita (root-knot nematode) infected pea plant assessed as emergence at 3 kg ai/ha applied to soil measured up to 14 days post planting under green house conditions (reference value: 75 +/- 13%); format: functional
[7] = test system: Pisum sativum; test: Phytotoxicity in Pisum sativum (pea) assessed as emergence at 4 kg ai/ha applied to soil measured up to 7 days post planting at 27 degC under green house conditions (reference value: 70 +/- 3.3%); format: organism-based; conditions: lathyrus oleraceus, in vivo, other, 168 h
[8] = test system: Phaseolus lunatus; test: Phytotoxicity in Phaseolus lunatus (lima bean) plant assessed as plant dry weight at 3.12 kg ai/ha applied to soil measured up to 14 days under green house conditions (reference value: 1.20 +/- 0.21 g); format: organism-based; conditions: in vivo, other, 336 h
[9] = test system: Meloidogyne incognita; test: Nematicidal activity against second juvenile stage of Meloidogyne incognita (root-knot nematode) infected pea plant assessed as root dry weight at 2 kg ai/ha applied to soil measured up to 7 days post planting under green house conditions (reference value: 0.25 +/- 0.041 g); format: functional
[10] = test system: Aphis gossypii; test: Insecticidal activity against Aphis gossypii (cotton aphid) infested cotton assessed as mortality applied to soil after 5 days; format: functional
[11] = test system: Phaseolus lunatus; test: Phytotoxicity in Phaseolus lunatus (lima bean) root assessed as root dry weight at 3.12 kg ai/ha applied to soil measured up to 14 days under green house conditions (reference value: 0.36 +/- 0.071 g); format: organism-based; conditions: in vivo, other, 336 h
[12] = test system: Myzus persicae; test: Insecticidal activity against Myzus persicae (green peach aphid) infested tomato assessed as mortality applied through foliar spray after 5 days; format: functional
[13] = test system: Meloidogyne incognita; test: Nematicidal activity against second juvenile stage of Meloidogyne incognita (root-knot nematode) infected pea plant assessed as plant emergence at 3 kg ai/ha applied to soil measured up to 7 days post planting under green house conditions (reference value: 75 +/- 13%); format: functional
[14] = test system: Meloidogyne incognita; test: Nematicidal activity against second juvenile stage of Meloidogyne incognita (root-knot nematode) infected pea plant assessed as root fresh weight at 3 kg ai/ha applied to soil measured up to 14 days post planting under green house conditions (reference value: 1.83 +/- 0.3 g); format: functional
[15] = test system: Phaseolus lunatus; test: Phytotoxicity in Phaseolus lunatus (lima bean) plant assessed as plant dry weight at 2.12 kg ai/ha applied to soil measured up to 7 days under green house conditions (reference value: 1.20 +/- 0.21 g); format: organism-based; conditions: in vivo, other, 168 h
[16] = test system: Meloidogyne incognita; test: Nematicidal activity against second juvenile stage of Meloidogyne incognita (root-knot nematode) infected lima bean plant assessed as root dry weight at 2 kg ai/ha applied to soil measured during planting under green house conditions (reference value: 0.5 +/- 0.052 g); format: functional
[17] = test system: Phaseolus lunatus; test: Phytotoxicity in Phaseolus lunatus (lima bean) plant assessed as plant dry weight at 0.56 kg ai/ha applied to soil under green house conditions (reference value: 1.20 +/- 0.21 g); format: organism-based; conditions: in vivo, other
[18] = test system: Pisum sativum; test: Phytotoxicity in Pisum sativum (pea) assessed as plant height at 2 kg ai/ha applied to soil measured up to 7 days post planting at 19 degC (reference value: 6.2 +/- 0.6 cm); format: organism-based; conditions: lathyrus oleraceus, in vivo, other, 168 h
[19] = test system: Phaseolus lunatus; test: Phytotoxicity in Phaseolus lunatus (lima bean) root assessed as root dry weight at 2.12 kg ai/ha applied to soil measured up to 7 days under green house conditions (reference value: 0.36 +/- 0.071 g); format: organism-based; conditions: in vivo, other, 168 h
[20] = test system: Meloidogyne incognita; test: Nematicidal activity against second juvenile stage of Meloidogyne incognita (root-knot nematode) infected pea plant assessed as root fresh weight at 2 kg ai/ha applied to soil measured up to 7 days post planting under green house conditions (reference value: 1.83 +/- 0.3 g); format: functional
[21] = test system: Pisum sativum; test: Phytotoxicity in Pisum sativum (pea) assessed as plant height at 4 kg ai/ha applied to soil measured up to 7 days post planting at 27 degC under green house conditions (reference value: 9.6 +/- 1.5 cm); format: organism-based; conditions: lathyrus oleraceus, in vivo, other, 168 h
[22] = test system: Meloidogyne incognita; test: Nematicidal activity against second juvenile stage of Meloidogyne incognita (root-knot nematode) infected pea plant assessed as plant fresh weight at 4 kg ai/ha applied to soil measured up to 7 days post planting under green house conditions (reference value: 4.3 +/- 0.56 g); format: functional
[23] = test system: Gossypium hirsutum; test: Phytotoxicity in Gossypium hirsutum (cotton) assessed as concentration required to cause foliar edge burn applied through foliar spray after 3 weeks; format: organism-based; conditions: in vivo, other, 504 h

Question: `CNC(=O)ON=C(C)SC` [METHOMYL] was tested. Which Activity [1] did it give?
Answer: 0.39 g

Question: What about the Activity [2] of the same compound?
Answer: 0.26 g

Question: And the Activity [3]?
Answer: 1.7 g

Question: And the mortality at 20 µg/mL [4]?
Answer: 95%

Question: What about the Activity [5] of the same compound?
Answer: 1.59 g

Question: What about the Activity [6] of the same compound?
Answer: 63%

Question: And the Activity [7]?
Answer: 60%

Question: And the Activity [8]?
Answer: 0.87 g

Question: What about the Activity [9] of the same compound?
Answer: 0.34 g

Question: And the LC90 [10]?
Answer: 11 µg/mL (≈ 67.8 µM)

Question: And the LC50 ([10]; Aphis gossypii, soil, 120 h)?
Answer: 5 µg/mL (≈ 30.8 µM)

Question: What about the Activity [11] of the same compound?
Answer: 0.22 g

Question: And the LC90 [12]?
Answer: 44 µg/mL (≈ 271 µM)

Question: What about the LC50 ([12]; Myzus persicae, foliar, 120 h) of the same compound?
Answer: 9 µg/mL (≈ 55.5 µM)

Question: And the Activity [13]?
Answer: 13%

Question: What about the Activity [14] of the same compound?
Answer: 0.89 g

Question: What about the Activity [15] of the same compound?
Answer: 0.66 g

Question: And the Activity [16]?
Answer: 0.36 g

Question: And the Activity [17]?
Answer: 1.2 g

Question: What about the Activity [18] of the same compound?
Answer: 7.3 cm

Question: What about the Activity [19] of the same compound?
Answer: 0.2 g

Question: What about the Activity [20] of the same compound?
Answer: 2.04 g

Question: What about the Activity [21] of the same compound?
Answer: 9.1 cm

Question: What about the Activity [22] of the same compound?
Answer: 5.5 g

Question: What about the Activity [23] of the same compound?
Answer: 100 µg/mL
